IC50 data for 20 compounds are collected here from patent US8343957B2, “Therapeutic pyrazoloquinoline urea derivatives” (Dart Neuroscience (Cayman) Ltd., priority 2007, dated 2013).

This experiment concerns the target GABAA central benzodiazepine receptor. In words: Benzodiazepine Binding Assay. The note with it: read-out: BZ binding Assay IC50; 1 nM (3H)-flunitrazepam, rat whole brain (except cerebellum) membranes, 60 minutes at 25° C.
In the case of `CN(C)C1CCN(C(=O)n2cc3c(=O)n(-c4ccccc4)nc-3c3ccccc32)CC1` [Compd 33, 5-(4-N,N-Dimethylaminopiperidine-1-carbonyl)-2-phenyl-2,5-dihydro-pyrazolo-(4,3-c)quinolin-3-one], the IC50 – broadly, the concentration at which inhibition is half-maximal – was less than 1000 nM. The value for `CC(C)N1CCN(C(=O)n2cc3c(=O)n(-c4ccccc4)nc-3c3cc(N4CCOCC4)ccc32)CC1` [Compd 34, 5-(4-Isopropylpiperazine-1-carbonyl)-8-morpholino-2-phenyl-2,5-dihydro-pyrazolo-(4,3-c)quinolin-3-one] was less than 1000 nM; that for `CC(C)N1CCN(C(=O)n2cc3c(=O)n(-c4ccc(Cl)cc4)nc-3c3cc(F)ccc32)CC1` [Compd 35, 5-(4-Isopropylpiperazine-1-carbonyl)-8-fluoro-2-(4-chlorophenyl)-2,5-dihydro-pyrazolo-(4,3-c)quinolin-3-one] was less than 1000 nM; that for `CN1CCN(C(=O)n2cc3c(=O)n(-c4ccccc4)nc-3c3ccccc32)CC1` [Compd 36, 5-(4-Methylpiperazine-1-carbonyl)-2-phenyl-2,5-dihydro-pyrazolo-(4,3-c)quinolin-3-one] was less than 1000 nM.

Turning to `O=C(N1CCN(c2ccccc2)CC1)n1cc2c(=O)n(-c3ccccc3)nc-2c2cc(F)ccc21` [Compd 37, 5-(4-Phenylpiperazine-1-carbonyl)-8-fluoro-2-phenyl-2,5-dihydro-pyrazolo-(4,3-c)quinolin-3-one], the IC50 is less than 1000 nM.

With `COc1ccc(-n2nc3c4cc(F)c(F)cc4n(C(=O)N4CCN(C(C)C)CC4)cc-3c2=O)cc1` [Compd 38, 5-(4-Isopropylpiperazine-1-carbonyl)-7,8-difluoro-2-(4′-methoxyphenyl)-2,5-dihydro-pyrazolo-(4,3-c)quinolin-3-one], the IC50 is less than 1000 nM. As for `COc1ccc(-n2nc3c4cc(F)ccc4n(C(=O)N4CCN(C(C)C)CC4)cc-3c2=O)cc1` [Compd 39, 5-(4-Isopropylpiperazine-1-carbonyl)-8-fluoro-2-(4′-methoxyphenyl)-2,5-dihydro-pyrazolo-(4,3-c)quinolin-3-one], the figure is less than 1000 nM. Consider `CCCN1CCN(C(=O)n2cc3c(=O)n(-c4ccccc4)nc-3c3ccccc32)CC1` [Compd 40, 5-(4-Propylpiperazine-1-carbonyl)-2-phenyl-2,5-dihydro-pyrazolo-(4,3-c) quinolin-3-one], for which the IC50 is less than 1000 nM. The value for `Cc1cc2c(cc1F)c1nn(-c3ccccc3)c(=O)c-1cn2C(=O)N1CCN(C)CC1` [Compd 41, 8-Fluoro-7-methyl-5-(4-methylpiperazine-1-carbonyl)-2-phenyl-2,5-dihydro-pyrazolo-(4,3-c)quinolin-3-one] was less than 1000 nM. In the case of `COc1ccc2c(c1)c1nn(-c3ccccc3)c(=O)c-1cn2C(=O)N1CCN(C)CC1` [Compd 42, 8-Methoxy-5-(4-methylpiperazine-1-carbonyl)-2-phenyl-2,5-dihydro-pyrazolo-(4,3-c)quinolin-3-one], the IC50 was less than 1000 nM. As for `Cc1c2c(=O)n(-c3ccccc3)nc-2c2ccccc2n1C(=O)N1CCN(C(C)C)CC1` [Compd 43, 5-(4-Isopropylpiperazine-1-carbonyl)-4-methyl-2-phenyl-2,5-dihydro-pyrazolo[4,3-c]quinolin-3-one], the figure is less than 1000 nM; as for `Cc1c2c(=O)n(-c3ccccc3)nc-2c2ccccc2n1C(=O)N1CCN(C)CC1` [Compd 44, 4-Methyl-5-(4-methylpiperazine-1-carbonyl)-2-phenyl-2,5-dihydro-pyrazolo[4,3-c]quinolin-3-one], less than 1000 nM.

As to `CN1CCN(C(=O)n2cc3c(=O)n(-c4ccccc4)nc-3c3cc(C(F)(F)F)ccc32)CC1` [Compd 45, 5-(4-Methylpiperazine-1-carbonyl)-2-phenyl-8-trifluoromethyl-2,5-dihydro-pyrazolo[4,3-c]quinolin-3-one], the IC50 was less than 1000 nM. As for `CC(C)N1CCN(C(=O)n2cc3c(=O)n(-c4ccccc4)nc-3c3cc(C(F)(F)F)ccc32)CC1` [Compd 46, 5-(4-Isopropyl-piperazine-1-carbonyl)-2-phenyl-8-trifluoromethyl-2,5-dihydro-pyrazolo[4,3-c]quinolin-3-one], the figure is less than 1 nM; as for `Cc1c2c(=O)n(-c3ccccc3)nc-2c2cc(F)c(F)cc2n1C(=O)N1CCN(C)CC1` [Compd 47, 5-(4-Methylpiperazine-1-carbonyl)-7,8-difluoro-4-methyl-2-phenyl-2,5-dihydro-pyrazolo-(4,3-c)quinolin-3-one], more than 1000 nM; as for `CN1CCN(C(=O)n2cc3c(=O)n(-c4ccsc4)nc-3c3cc(F)c(F)cc32)CC1` [Compd 49, 5-(4-Methylpiperazine-1-carbonyl)-2-(thiophen-3-yl)-7,8-difluoro-2,5-dihydro-pyrazolo[4,3-c]quinolin-3-one], less than 1000 nM.

On to `O=C(N1CCC(O)CC1)n1cc2c(=O)n(-c3ccsc3)nc-2c2cc(F)c(F)cc21` [Compd 50, 5-(4-Hydroxypiperidine-1-carbonyl)-2-(thiophen-3-yl)-7,8-difluoro-2,5-dihydro-pyrazolo[4,3-c]quinolin-3-one], for which the IC50 is less than 1000 nM. The value for `O=C(N1CCC(O)CC1)n1cc2c(=O)n(-c3ccccc3)nc-2c2cc(F)c(F)cc21` [Compd 51, 5-(4-Hydroxypiperidine-1-carbonyl)-2-phenyl-7,8-difluoro-2,5-dihydro-pyrazolo[4,3-c]quinolin-3-one] was more than 1000 nM; that for `CN1CCCN(C(=O)n2cc3c(=O)n(-c4ccccc4)nc-3c3cc(F)c(F)cc32)CC1` [Compd 52, 5-(4-Methylperhydro[1,4]-diazepine-1-carbonyl)-7,8-difluoro-2-phenyl-2,5-dihydro-pyrazolo[4,3-c]quinolin-3-one] was less than 1000 nM; that for `CC(C)N1CCN(C(=O)n2cc3c(=O)n(-c4ccccn4)nc-3c3cc(F)c(F)cc32)CC1` [Compd 53, 5-(4-Isopropylpiperazine-1-carbonyl)-7,8-difluoro-2-(2′-pyridyl)-2,5-dihydro-pyrazolo-[4,3-c]quinolin-3-one] was more than 1000 nM.
